Test results published in US11865158B2, “Process and composition matter of nanoparticle formulation for systemic treatment of sepsis” (PURDUE RESEARCH FOUNDATION, priority 2019, dated 2024).
Where two headings read alike, the source gives them in different places.

What was measured:
C57BL/6 male mice [1] = conditions: known value, cited from earlier work
J774a.1 macrophages [2] = experiment: Effect on cell membrane, confocal microscopy with wheat germ agglutinin; type: cell-based; conditions: eq. to 150 μg/mL PMB, 12 h
Protocol: (§1) Effect of PMB and D-TZP on cell membrane. The effect of D-TZP on J774A.1 cell membrane was monitored by two methods (scanning electron microscopy and confocal microscopy). For scanning electron microscopy, J774A.1 macrophages were plated in a 6-well plate at a density of 3×10^5 cells per well with 3 mL of complete medium. After overnight incubation at 37° C. in a 5% CO2 atmosphere, the cells were treated with either free PMB or D-TZP at a concentration equivalent to 150 μg/mL PMB for 12 h. The cells were centrifuged at 233 relative centrifugal force (rcf) for 3 min. The medium was removed, and 2.5% glutaraldehyde solution was added for fixation overnight at 4° C. The cells were then rinsed three times with water (5 min each) and incubated in 2% Osmium tetroxide for 1 h. After rinsing another three times with water (5 min each), the cells were dehydrated with a series of ethanol gradients (50%, 75%, 95%) for 10 minutes at each step. The dehydrated cells were rinsed with 100% ethanol three times for 10 minutes each time, stored in a 1:1 mixture of HMDS and ethanol in 1:1 for 30 min, and rinsed with 100% HMDS for 30 min twice. After overnight drying, the cells were placed on a carbon tape attached to an aluminum stud and coated with platinum for SEM analysis. The morphology of treated J774a.1 cells then was observed by a FEI NOVA NanoSEM scanning electron microscope (SEM). […]

C57BL/6 male mice [3] = experiment: In vivo safety; conditions: dose exceeding its LD50
Protocol: D-TZP was intraperitoneally (IP) or intravenously (IV) injected to C57BL/6 male mice at doses equivalent to as high as 40 mg/kg PMB and 10 mg/kg PMB, respectively, much greater than the known IP and IV LD50 values of free PMB (20 mg/kg for IP and 5 mg/kg for IV). […] Higher doses have not been tested; therefore, the maximum tolerated dose of D-TZP in each route could not be defined. […] The increased tolerated dose is consistent with the reduced in vitro toxicity of D-TZP.
In vivo safety. 6-10 week-old C57BL/6 male mice were used to evaluate the safety of D-TZP and TZP in comparison with free PMB. The treatment was administered by IP (2.5-40 mg/kg) or IV (3-10 mg/kg) injection. The body weight changes were monitored daily up to 1 week. For blood chemistry and histology analysis, blood and major organs were collected at 12 h post IV injection of vehicle (5% dextrose), free PMB, D-TZP, or TZP (all equivalent to 10 mg/kg PMB). Animals were sacrificed by CO2 asphyxiation. Blood was obtained by cardiac puncture. Major organs were fixed in 10% formalin, embedded in paraffin, sectioned, and stained with hematoxylin and eosin for histological evaluation. The samples were imaged with a Nikon 90i upright microscope. To evaluate the safety of multiple intravenous injections, 5 mg/kg PMB or 10 mg/kg PMB equivalent D-TZP was given every 2 days up to 4 times total with body weight monitoring over 2 weeks.

[4] = test system: LPS-induced NF-kB/AP-1 activation in THP1-XBlue-MD2-CD14 cells; experiment: In vitro anti-LPS activity, SEAP reporter assay, LPS pretreated and supernatant added to cells; type: cell-based, human; conditions: 10 ng/mL LPS, equivalent to PMB 9.5-18.9 μg/mL
Protocol: (§2) To investigate if D-TZP can neutralize LPS, a reporter cell line responding to LPS was incubated with LPS and free PMB or D-TZP's (with different amounts of PMB). THP1-XBlue-MD2-CD14, derived from the human monocytic THP-1 cell line, overexpresses MD2 and CD14 to amplify the response to TLR4 agonist LPS. Color change of the Quanti-Blue reagent (NF-kB/AP-1-inducible secreted embryonic alkaline phosphatase (SEAP) reporter protein) reflects NF-kB/AP-1 activation due to LPS. LPS-induced SEAP production was measured at 620 nm. The reporter cells with 10 ng/mL of LPS expressed a high level of SEAP as compared to non-challenged cells. […] A supernatant was obtained from each mixture to separate unbound LPS and added to THP1-XBlue-MD2-CD14 cells.
(§3) In vitro anti-LPS activity. Five microliters of LPS ([…]) was mixed with 15 μL of free PMB, D-TZP, or TZP at different concentrations in a flat-bottom 96-well plate. THP1-XBlue-MD2-CD14 cell suspension (10^5 cells in 180 μL) was then added to the mixtures. After 24 h incubation, cells were centrifugated at 233 rcf for 5 min. Twenty microliters of the cell medium was mixed with the Quanti-Blue reagent. After 2 h incubation, the color was measured at 620 nm by a Spectra Max M3 microplate reader (Molecular Devices, Sunnyvale, CA). […] The medium was analyzed in the same manner as above.

J774a.1 macrophages [5] = experiment: Effect on cell membrane, SEM; type: cell-based; conditions: eq. to 150 μg/mL PMB, 12 h
Protocol: as §1

[6] = test system: LPS-induced NF-kB/AP-1 activation in THP1-XBlue-MD2-CD14 cells; experiment: In vitro anti-LPS activity, SEAP reporter assay, LPS added simultaneously with treatment; type: cell-based, human; conditions: 10 ng/mL LPS, free PMB at 150 μg/mL
Protocol: as §2, §3

polymyxin B [PMB]
LD50 (C57BL/6 male mice [1]; IP): 20 mg/kg | LD50 (C57BL/6 male mice [1]; IV): 5 mg/kg | cell membrane staining with wheat germ agglutinin (J774a.1 macrophages [2]): significant membrane damage | mortality (C57BL/6 male mice [3]): resulted in mortality | SEAP production, LPS pretreated for 1 h, supernatant added to cells [4]: significant reduction in SEAP production | cell membrane morphology by SEM (J774a.1 macrophages [5]): deformed membrane morphology | LPS-induced SEAP production [6]: reduced the SEAP production
